From ChEMBL document CHEMBL1201862, “PubChem BioAssay data set” (2004)
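Step 1: Grow cells in 96-well plates. Step 2: Expose to compound for 48 hours at 5 concentrations. Step 3: Interpolate endpoints linearly; if unreached, use highest concentration. Here, GI50 denotes the concentration required for 50% inhibition of growth.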 Calls of active or inactive are those of the source. No stated cut-off is given here; in the data, active = GI50 up to about 1.1 µM and inactive = higher.

What was measured:
Test in all cases: NCI tumour cell line growth inhibition, 48 h
786-0 = system: 786-0
A498 = system: A498
A549 = system: A549
ACHN = system: ACHN
BT-549 = system: BT-549
CAKI-1 = system: CAKI-1
CCRF-CEM = system: CCRF-CEM
COLO 205 = system: COLO 205
DU-145 = system: DU-145
EKVX = system: EKVX
HCC 2998 = system: HCC 2998
HCT-116 = system: HCT-116
HCT-15 = system: HCT-15
HL-60 = system: HL-60
HOP-92 = system: HOP-92
HT-29 = system: HT-29
Hs-578T = system: Hs-578T
IGROV-1 = system: IGROV-1
K562 = system: K562
KM12 = system: KM12
LOX IMVI = system: LOX IMVI
M14 = system: M14
MCF7 = system: MCF7
MDA-MB-231 = system: MDA-MB-231
MDA-MB-435 = system: MDA-MB-435
MOLT-4 = system: MOLT-4
Malme-3M = system: Malme-3M
NCI-H226 = system: NCI-H226
NCI-H23 = system: NCI-H23
NCI-H460 = system: NCI-H460
NCI-H522 = system: NCI-H522
NCI/ADR-RES = system: NCI/ADR-RES
OVCAR-4 = system: OVCAR-4
OVCAR-5 = system: OVCAR-5
OVCAR-8 = system: OVCAR-8
PC-3 = system: PC-3
SF-268 = system: SF-268
SF-295 = system: SF-295
SF-539 = system: SF-539
SK-MEL-28 = system: SK-MEL-28
SK-MEL-2 = system: SK-MEL-2
SK-MEL-5 = system: SK-MEL-5
SK-OV-3 = system: SK-OV-3
SN12C = system: SN12C
SNB-19 = system: SNB-19
SNB-75 = system: SNB-75
SW-620 = system: SW-620
T47D = system: T47D
TK-10 = system: TK-10
U-251 = system: U-251
UACC-257 = system: UACC-257
UACC-62 = system: UACC-62
UO-31 = system: UO-31
HOP-62 = system: HOP-62
OVCAR-3 = system: OVCAR-3
RXF 393 = system: RXF 393
SR = system: SR
MDA-N = system: MDA-N
RPMI-8226 = system: RPMI-8226

Measured: GI50

COC1=CC23CCCN2CCc2cc4c(cc2C3C1O)OCO4 (centres undefined)
41.8 µM: HCT-15
inactive: 786-0 44.9 µM | A498 59.3 µM | A549 36.4 µM | ACHN 22.3 µM | BT-549 > 100 µM | CAKI-1 31.4 µM | CCRF-CEM 41.2 µM | COLO 205 24.5 µM | DU-145 43 µM | EKVX 52.5 µM | HCC 2998 70.3 µM | HCT-116 44.5 µM | HL-60 25.8 µM | HOP-92 > 100 µM | HT-29 39.4 µM | Hs-578T 82 µM | IGROV-1 28.8 µM | K562 > 10 µM | KM12 47 µM | LOX IMVI 37.1 µM | M14 > 100 µM | MCF7 48.5 µM | MDA-MB-231 > 100 µM | MDA-MB-435 > 100 µM | MOLT-4 66.7 µM | Malme-3M 43 µM | NCI-H226 > 100 µM | NCI-H23 62.8 µM | NCI-H460 36 µM | NCI-H522 29.2 µM | NCI/ADR-RES > 100 µM | OVCAR-4 44.6 µM | OVCAR-5 > 100 µM | OVCAR-8 > 100 µM | PC-3 59.3 µM | SF-268 50.2 µM | SF-295 36.1 µM | SF-539 40.6 µM | SK-MEL-28 > 100 µM | SK-MEL-2 54.2 µM | SK-MEL-5 20 µM | SK-OV-3 27 µM | SN12C 57.5 µM | SNB-19 20.3 µM | SNB-75 78.2 µM | SW-620 66.1 µM | T47D 92.5 µM | TK-10 > 100 µM | U-251 > 100 µM | UACC-257 > 100 µM | UACC-62 > 100 µM | UO-31 48 µM

O=C1N(CN2CCOCC2)CN(CN2CCOCC2)C(=O)N1Cc1ccc(-c2ccc(CN3C(=O)N(CN4CCOCC4)CN(CN4CCOCC4)C3=O)cc2)cc1
inactive: 786-0 9.16 µM | A498 15.3 µM | A549 20.8 µM | ACHN 27.4 µM | BT-549 5.87 µM | CAKI-1 14.2 µM | COLO 205 > 21 µM | DU-145 16.8 µM | EKVX 21.7 µM | HCC 2998 11 µM | HCT-116 7.6 µM | HOP-62 21.6 µM | HOP-92 9.46 µM | HT-29 19.6 µM | Hs-578T 26.2 µM | IGROV-1 11.6 µM | K562 3.75 µM | KM12 4.73 µM | LOX IMVI 10 µM | M14 5.53 µM | MCF7 4 µM | MDA-MB-231 26.5 µM | MDA-MB-435 2.63 µM | MOLT-4 4.19 µM | Malme-3M 13.2 µM | NCI-H226 > 46.2 µM | NCI-H23 10.6 µM | NCI-H460 15.9 µM | NCI-H522 12.2 µM | NCI/ADR-RES 17.3 µM | OVCAR-3 7.78 µM | OVCAR-4 14 µM | OVCAR-5 20.2 µM | OVCAR-8 20.5 µM | PC-3 20.8 µM | RXF 393 10.8 µM | SF-268 14.2 µM | SF-295 23.2 µM | SF-539 > 27.8 µM | SK-MEL-28 12.9 µM | SK-MEL-2 6.55 µM | SK-MEL-5 > 19.7 µM | SK-OV-3 32.9 µM | SNB-19 10.3 µM | SNB-75 9.55 µM | SR 2.08 µM | SW-620 8.38 µM | T47D 24 µM | TK-10 16.5 µM | U-251 16.1 µM | UACC-257 13.8 µM | UACC-62 9.75 µM | UO-31 19.4 µM
9.55 µM: HCT-15

CC1OC2(CC(OCc3ccccc3)C1OCc1ccccc1)OCCO2 (centres undefined)
28.2 µM: HCT-15
inactive: 786-0 61.5 µM | A498 12.8 µM | A549 50.7 µM | ACHN 61.8 µM | BT-549 59 µM | CAKI-1 63.1 µM | CCRF-CEM 34.4 µM | COLO 205 62.1 µM | DU-145 88.5 µM | EKVX 35.6 µM | HCC 2998 71.8 µM | HCT-116 45.9 µM | HL-60 20 µM | HOP-62 > 100 µM | HOP-92 49.9 µM | HT-29 20.9 µM | Hs-578T 17.4 µM | IGROV-1 > 100 µM | K562 77.8 µM | KM12 63.7 µM | LOX IMVI 33.6 µM | M14 45.7 µM | MCF7 66.2 µM | MDA-MB-231 37 µM | MDA-MB-435 57 µM | MDA-N 55.1 µM | MOLT-4 27.3 µM | Malme-3M > 100 µM | NCI-H226 82.6 µM | NCI-H23 35 µM | NCI-H460 32 µM | NCI-H522 31.2 µM | NCI/ADR-RES 39.1 µM | OVCAR-3 > 100 µM | OVCAR-4 76.7 µM | OVCAR-5 51.3 µM | OVCAR-8 > 100 µM | PC-3 59.8 µM | RPMI-8226 35.2 µM | RXF 393 16.4 µM | SF-268 60.1 µM | SF-295 51.1 µM | SF-539 > 100 µM | SK-MEL-28 > 100 µM | SK-MEL-2 78.5 µM | SK-MEL-5 33 µM | SK-OV-3 > 100 µM | SN12C 21.4 µM | SNB-19 44.3 µM | SR 21.1 µM | SW-620 70 µM | TK-10 > 100 µM | U-251 44.5 µM | UACC-257 34.8 µM | UACC-62 56.9 µM | UO-31 42.3 µM
